Data reported in US4939256A, “Novel platinum complex, antineoplastic agent containing the same, and intermediate therefor” (Kanebo Ltd., priority 1988, dated 1990).

Assays:
BDF1 male mice = assay: Experiment 4: Acute toxicity (LD50); format: in vivo; conditions: intraperitoneal, until 14th day, Weil method
Protocol: (§1) (a) Animal: BDF1 male mice (6 week age, weighing 22-25 g, 5 animals per each group)
Each test compound was dissolved or suspended in a physiological saline solution, and the solution or suspension (0.1 ml/10 g body weight) was intraperitoneally administered to mice. The number of mice that died was counted until 14th day after administration of test compound, and the acute toxicity (LD50) was calculated by Weil method.

[1] = test system: Cisplatin-resistant L1210 cells (L1210/DDP) and L1210 cells; assay: Experiment 2: Effects on cisplatin-resistant tumor cells (growth inhibition, resistance index); format: cell-based; conditions: L1210/DDP versus L1210, from IC50 after 48 hours; for Resistance index, maximum: maximum of 2 to 4 tests; for Resistance index, Mean: mean of 2 to 4 tests; for Resistance index, minimum: minimum of 2 to 4 tests
Protocol: 2. Cisplatin-resistant L1210 cells (hereinafter, referred to as L1210/DDP), which is available from Cancer Chemotherapy Center, Japanese Foundation for Cancer Research
RPMI-1640 medium containing 10% (v/v) fetal bovine serum, which was prepared as follows:
RPMI-1640 (manufactured by GIBCO) (10.4 g), sodium hydrogen carbonate (1.3 g), streptomycin sulfate ([…]), penicillin G potassium ([…]) and a 1% aqueous solution of β-mercaptoethanol (40 μl) were dissolved in distilled water (one liter). To this mixture (90 parts by volume) was added fetal bovine serum (manufactured by GIBCO) (10 parts by volume) to give RPMI-1640 medium containing 10% (v/v) fetal bovine serum (hereinafter, referred to as "serum-containing RPMI-1640 medium").
L1210 cells or L1210/DDP cells were added to the serum-containing RPMI-1640 medium to prepare a cell suspension (3×10^5 cells/ml). The cell suspension (each 1 ml) was seeded onto a microplate (Falcon 3047, manufactured by Falcon) and cultivated in air containing 5% CO2 gas at 37° C. (one group, 3 wells). After cultivating for 24 hours, a solution of each test compound (1 ml) (which was prepared by dissolving each test compound in the serum-containing RPMI-1640 medium in various concentrations) was added to the medium, and the mixture was cultivated under the same conditions for 48 hours. After the cultivation, the number of viable cells was counted by Trypan Blue exclusion test method, and the mean number of viable cells in each group was calculated. Besides, in the control group, the above was repeated by using the serum-containing RPMI-1640 medium instead of the solution of test compound, and the mean number of viable cells in the control group was calculated likewise. From the mean number of viable cells in various concentration of test compound and the mean number of viable cells in the control group, the concentration required for 50% inhibition of growth (IC50) was calculated by probit method. Then, the resistance index of test compound was calculated by the following equation: [formula]
The above test was repeated for 2 to 4 times, and the mean resistance index was obtained.

Leukemia P388 = assay: Experiment 1: Test of antitumor activity (increase in life span of tumor-bearing mice); format: in vivo, BDF1 male mice; conditions: intraperitoneal, P388 in BDF1 mice; for Increase in life span (ILS %): observed until 30th day
Protocol: (a) Animals: BDF1 male mice (6 week age, weighing 22 to 25 g, 4 animals per each group)
(b) Tumor cells: Leukemia P388
Tumor cells (1×10^6 per mouse) were intraperitoneally inoculated into mice. After 24 hours, a solution of each test compound in physiological saline solution was intraperitoneally administered to the mice. In control mice, only physiological saline solution was intraperitoneally administered.
Survival days of the mice was observed until 30th day after the inoculation of tumor cells. Mean survival days (X) in the mice administered with test compound and mean survival days (Y) in the control mice were measured, and the increase in life span (ILS %) was calculated by the following equation: [formula]

kidney = assay: Experiment 3: Side effect on kidney (blood urea nitrogen value); format: in vivo, BDF1 male mice; conditions: intraperitoneal, 4th day after administration, versus control mice
Protocol: It was studied in the blood urea nitrogen value (BUN value) as an index.
as §1
Each test compound was dissolved in a physiological saline solution, and the solution (0.1 ml/10 g body weight) was intraperitoneally administered. In the control mice, only the physiological saline solution (0.1 ml/10 g body weight) was intraperitoneally administered. On the 4th day after the administration, the test compound-administered mice and the control mice were bleeded from the femoral artery, and the collected blood was centrifuged at 3,000 r.p.m. at 4° C. for 15 minutes to give a test serum. BUN value in the test serum was measured by a urease indophenol method using a kit for measuring urea nitrogen (Urea NB-Test Wako, manufactured by Wako Pure Chemical Industries, Ltd.). That is, the above test serum (20 μl) was taken in a test tube and thereto was added color reagent A [a mixture of a urease solution (one part by volume) and phosphate buffer (pH 7.0, 20 parts by volume), 2.0 ml], and the mixture was mixed well and incubated at 37° C. for 15 minutes. […]
The absorbance of the standard solution and test solution was measured at 570 nm with a spectrophotometer with reference to the blank solution as a control, and BUN value in the test serum was calculated by the following equation: [formula] […]

[2] = prior art, clinically used; cited from earlier work

Molecule: a mixture of α-glycolato-(3RS)-3-aminopyrrolidine platinum (II) (Isomer a-1) and β-glycolato-(3RS)-3-aminopyrrolidine platinum (II) (Isomer a-2) [Platinum complex A-3]
- LD50 (BDF1 male mice; 20160 min): 107.0 mg/kg
- Resistance index, maximum ([1]; 2880 min): 4.6
- Resistance index, Mean ([1]; 2880 min): 4.6
- Resistance index, minimum ([1]; 2880 min): 4.6
- Increase in life span (ILS %) (Leukemia P388; 25 mg/kg): 111%
- Increase in life span (ILS %) (Leukemia P388; 50 mg/kg): 170%
- Increase in life span (ILS %) (Leukemia P388; 100 mg/kg): 26%
- dose showing maximum increase in life span in Experiment 1 (Leukemia P388): 50 mg/kg

Molecule: a mixture of α-glycolato-(3RS)-3-aminopiperidine platinum (II) (Isomer b-1) and β-glycolato-(3RS)-3-aminopiperidine platinum (II) (Isomer b-2) [Platinum complex B-1]
- LD50 (BDF1 male mice): 57.0 mg/kg
- Resistance index, maximum [1]: 5.4
- Resistance index, Mean [1]: 4.3
- Resistance index, minimum [1]: 3.2
- Increase in life span (ILS %) (Leukemia P388; 25 mg/kg): 131%
- Increase in life span (ILS %) (Leukemia P388; 50 mg/kg): 174%
- Increase in life span (ILS %) (Leukemia P388; 100 mg/kg): -45%
- dose showing maximum increase in life span in Experiment 1 (Leukemia P388): 50 mg/kg

Molecule: N.N.[Cl][Pt][Cl] [Cisplatin, cisdiamminedichloroplatinum (II), reference compound]
- Rate of change of BUN value (%) (kidney; 10 mg/kg): +106%
- Rate of change of BUN value (%) (kidney; 15 mg/kg): +128%
- antineoplastic activity, in words [2]: excellent antineoplastic activity
- Increase in life span (ILS %) (Leukemia P388; 5 mg/kg): 108%
- Increase in life span (ILS %) (Leukemia P388; 10 mg/kg): 167%
- Increase in life span (ILS %) (Leukemia P388; 20 mg/kg): -11%
- dose showing maximum increase in life span in Experiment 1 (Leukemia P388): 10 mg/kg

Molecule: a mixture of α-glycolato-(3RS)-3-aminopyrrolidine platinum (II) (Isomer a-1) and β-glycolato-(3RS)-3-aminopyrrolidine platinum (II) (Isomer a-2) [Platinum complex A-1]
- Increase in life span (ILS %) (Leukemia P388; 25 mg/kg): 74%
- Increase in life span (ILS %) (Leukemia P388; 50 mg/kg): 167%
- Increase in life span (ILS %) (Leukemia P388; 100 mg/kg): -43%
- dose showing maximum increase in life span in Experiment 1 (Leukemia P388): 50 mg/kg

Molecule: O=C1C[O][Pt]2([NH]C3CC[N]2C3)[O]1 (racemic) [Platinum complex A-2, α-glycolato-(3RS)-3-aminopyrrolidine platinum (II)]
- Increase in life span (ILS %) (Leukemia P388; 25 mg/kg): 108%
- Increase in life span (ILS %) (Leukemia P388; 50 mg/kg): 172%
- Increase in life span (ILS %) (Leukemia P388; 100 mg/kg): 115%
- dose showing maximum increase in life span in Experiment 1 (Leukemia P388): 50 mg/kg
